In a melting point compilation (Tetko et al.):

melting point | Compound
35 °C | Clc1cccc(I)c1Cl
52 °C | Clc1cc(Cl)c(Cl)c(I)c1
268 to 270 °C | CSc1nc2[nH]c(=S)n(-c3ccccc3)c(=O)c2n1C
150 °C | N#Cc1ccnc(N)c1
155 to 156 °C | CC(C)(C)OC(=O)N1CC(=O)CC1C(=O)O (centres undefined)
178 °C | Cc1cnc(C(=O)O)c[n+]1[O-]
124 °C | COC(=O)C1(S(=O)(=O)c2ccc(Br)cc2)CC1
178 °C | Oc1cccc2cc3cccc(O)c3c(O)c12
83 to 84 °C | BrCc1ccc(-c2cccs2)cc1
173 °C | CC(=O)N1N=C(c2ccc3ccccc3c2)CC1c1ccccc1Cl (centres undefined)
-16.7 °C | CCOc1ccccc1F
103 °C | ClCc1cc(Br)cc2c1OCOC2
95 °C | O=Cc1ccc(Br)cn1
87 to 89 °C | Brc1ccc(-c2ccccn2)s1
94 °C | CC1CCC(C)(CO)C1(C)C (centres undefined)
48 °C | COC(=O)c1ccc(N=C=S)cc1
163 °C | CC(=O)Nc1ccc(C#N)c(C)c1
83 to 87 °C | CCc1ncc[nH]1
79 °C | COc1cc(O)ccc1Br
76 °C | CC1CCC(C(C)C)C(OC(=O)c2ccc3ccccc3c2)C1 (centres undefined)
332 °C | c1ccc(-c2c3ccccc3c(-c3ccccc3)c3c(-c4ccccc4)c4ccccc4c(-c4ccccc4)c23)cc1
130 °C | Cn1nc(-c2ccco2)cc1C(=O)O
-15 °C | CCCCCCCCCCC(=O)OCC
360 °C | Nc1cc(C(=O)O)cc(C(=O)O)c1

melting point | Compound
214 °C | CC(C)C1=C(O)C(=O)C2=C(C1=O)C(O)CC1C(C)(C)CCCC21C (centres undefined)
54.5 °C | C[C@H]1C(=O)[C@H]2[C@@H](C[C@H]1C#N)C2(C)C
172 to 174 °C | NC(=S)C1=Cc2ccccc2OC1
98.5 °C | CCCCCCCCCCCCCCCC(=O)NCCO
225 °C | Cn1cc(CCC(=O)O)c(=O)n(C)c1=O
118 to 121 °C | O=C(O)[C@H](O)c1ccccc1Cl
46 to 47 °C | O=C=Nc1cccc(-n2cccc2)c1
104 to 107 °C | CC(=O)C1CC(CC(=O)O)C1(C)C (centres undefined)
51 °C | Ic1cccc(OCc2ccccc2)c1
10 °C | Cc1nccc2ccccc12
215 to 220 °C | O=C1OS(=O)(=O)c2c(Br)c(Br)c(Br)c(Br)c21
159 to 161 °C | CC(C)NC(=O)c1cc(F)c(Cl)nc1Cl
72 °C | N#Cc1ccnc(Br)c1
152 °C | COc1cc(O)c2c(c1)OC(c1ccc(O)cc1)CC2=O (centres undefined)
120 °C | CCOC(=O)C=Cc1c[nH]c2ccccc12
127 to 128 °C | c1ccc(CON=C(c2cc3ccccc3o2)c2cc3ccccc3o2)cc1
150 to 152 °C | O=[N+]([O-])c1ccc2ncoc2c1
4 °C | Fc1cc(F)c(Br)c(F)c1
-30.6 °C | CCCCCCCC(=O)OCCCCCC
60 °C | CC(=O)c1ccsc1
106 to 108 °C | OCc1ccc2nccn2c1
76 to 78 °C | O=C(O)CCc1cccc(Br)c1
-23 °C | O=C1C=C(c2ccccc2)CC1
11 °C | O=C(n1ccnc1)C(F)(F)C(F)(F)C(F)(F)F

melting point | Compound
56 °C | O=C1C=CC2C3C=CC(C3)C12 (centres undefined)
245 to 248 °C | O=C(O)C=Cc1ccc(Cl)cc1Cl
165 °C | CNC(=S)Nc1cc(OC)c(OC)cc1C(c1ccc(C)o1)c1ccc(C)o1
85 to 88 °C | CC(C)(C)OC(=O)N[C@@H](CSCc1ccccc1)C(=O)O
206 °C | COc1ccc(C(=O)N(NC(=O)c2ccccc2)C(C)(C)C)cc1OC
91.5 °C | CC(C)(O)c1ccc(-c2ccccc2)cc1
171 °C | CC(=O)Nc1cc([N+](=O)[O-])c(/C=C/c2ccccc2)c([N+](=O)[O-])c1/C=C/c1ccccc1
75 to 77 °C | Cn1nc2ccccc2c1C=O
220 to 221 °C | Nc1c([N+](=O)[O-])sc2ccccc12
252 °C | Cc1ccc(-c2csc(/C(C#N)=N\Nc3ccc(O)cc3)n2)cc1
100 to 101 °C | O=CN(C=O)C=O
185 to 187 °C | COc1cc(CNC(=O)c2[nH]c3ccccc3c2CCO)cc(OC)c1
33 to 36 °C | O=C(O)C(F)(F)C(F)(F)C(F)(F)C(F)(F)C(F)(F)C(F)(C(F)(F)F)C(F)(F)F
128 °C | CC(C)(C)c1cc(O)ccc1O
69 °C | COC(=O)c1cccc([N+](=O)[O-])c1C(=O)OC
129 to 131 °C | COC(=O)c1sc(Br)c(Br)c1O
104 to 107 °C | CC(C)Cc1ccc(C(=O)C=Cc2cccc([N+](=O)[O-])c2)cc1
203 °C | O=[N+]([O-])c1ccc(N/N=C2\Cc3ccccc32)c([N+](=O)[O-])c1
54 °C | OCc1cc(C(F)(F)F)cc(C(F)(F)F)c1
103 to 107 °C | COc1cc2c(cc1OC)C(CCO)NCC2 (centres undefined)
21 °C | C#Cc1ccc(C)cc1
142 to 145 °C | NNC(=S)NC1CCCCC1
201 to 203 °C | O=C(O)c1cc(-c2ccc(Br)cc2)oc1C(F)(F)F
142 to 143 °C | Cc1ccccc1C(N)=S

melting point | Compound
29.3 °C | CCCCCCCCCCCCCCCCCC(CC)c1ccccc1 (centres undefined)
165 to 172 °C | OCc1nc2ccccc2[nH]1
38 °C | Fc1cnc(Cl)nc1Cl
77 °C | COC(=O)c1ccc2ccccc2c1
126 to 127 °C | CNC(=S)N(C)C
231 °C | NC(=O)NN=Cc1ccccc1
134 °C | Nc1c(I)cc(I)c(C(=O)N(CCC(=O)O)c2ccccc2)c1I
5 °C | CC1CCNCC1
190 °C | Oc1ccc(I)cn1
-78 °C | FC(Cl)C(F)(F)Cl (centres undefined)
341 °C | O=C(O)c1ccc2c(c1)C(=O)c1ccccc1-2
160 to 165 °C | Cc1ccc2c(c1)C1C(C3C2C2(Cl)C(Cl)=C(Cl)C3(Cl)C2(Cl)Cl)C2(Cl)C(Cl)=C(Cl)C1(Cl)C2(Cl)Cl (centres undefined)
205 °C | O=C(O)C12CC3CC(CC(O)(C3)C1)C2
144 °C | CC(C)(C)OC(=O)N[C@@H](CC(=O)O)c1ccc(Br)cc1
42 °C | CC(C)=NNc1ccccc1
135 °C | O=C(O)c1ccc(F)c(Cl)c1
63 to 65 °C | N#Cc1ccc(N2CCCNCC2)nc1
107 °C | c1ccc(-n2nc3ccccc3n2)cc1
89.5 °C | COC[C@H]1CCCN1C(=S)SCC(=O)c1ccc(Br)cc1
146 °C | O=C(Nc1nccs1)C(F)(F)C(F)(F)C(F)(F)C(F)(F)C(F)(F)C(F)(F)C(F)(F)C(F)(F)F
87.2 to 90 °C | OC1OC(C2CCCCC2)Cc2ccccc21 (centres undefined)
122 °C | FC(F)(F)c1nn(CN2CCCCC2)c(=S)n1N=Cc1ccc2c(c1)OCO2
45 °C | OCCOc1cccc2ccccc12
240 °C | COc1ccc(C(=O)O)cc1I

melting point | Compound
218 °C | COc1ccc(C(=O)NN=C(C)c2c(O)c3ccccc3n(-c3ccccc3)c2=O)cc1
79 °C | COc1ccc(C(=O)c2ccc(OC)c(OC)c2)cc1
145 °C | Cc1ccc(S(=O)(=O)N2C/C(=C\c3cccc(Cl)c3)N(S(=O)(=O)c3ccc(C)cc3)c3ccccc32)cc1
-51 °C | CCO[Si](Cl)(OCC)OCC
86 to 88 °C | CCOC(=O)c1csnn1
155 °C | CC(=O)c1ccc(NC(=O)C(F)(F)C(F)(F)C(F)(F)C(F)(F)C(F)(F)C(F)(F)C(F)(F)C(F)(F)F)cc1
103 to 104 °C | N#Cc1ccc(Cn2ccnc2)cc1
139 °C | Nc1cc([N+](=O)[O-])ccc1Br
59 to 60 °C | N#CCc1nc(-c2ccccc2)cs1
43 °C | CC(C)(C)C(=O)C=Cc1ccccc1
218 to 220 °C | C=C1C2CCC3(O)C4(C)CCCC(C)(C(=O)OC5OC(CO)C(O)C(O)C5O)C4CCC3(C2)C1O (centres undefined)
129 °C | COC(=O)c1cc(OC)c(OC)cc1N
238 °C | CC(=NNC(N)=O)c1cccc(C(C)=NNC(N)=O)c1
114 to 116 °C | O=[N+]([O-])c1ccc(S(=O)(=O)Oc2ccccc2)cc1
135 to 137 °C | CC(=O)c1c(C)c(C(=O)O)n(C)c1C
19 °C | CCCCCCCCCCCCCCCBr
49 to 51 °C | N=C(N)C(F)(F)C(F)(F)C(F)(F)F
73 to 75 °C | O=Cc1ccc(Cn2cncn2)cc1
150 to 152 °C | COc1ccc(C(N)=S)cn1
-16 °C | FC(F)(F)C(F)(F)C(F)(F)C(F)(F)C(F)(F)C(F)(F)C(F)(F)C(F)(F)C(F)(F)F

Compound | melting point
c1ccc(N2CCN(c3ccccc3)CC2)cc1 | 165 °C
CCC(Br)(CC)C(N)=O | 67 °C
CC(=O)NCO | 55 to 56 °C
CC(C)CC(N)P(=O)(O)O (centres undefined) | 274 to 280 °C
Cc1cc(N=Nc2ccccc2C)ccc1N | 101 to 102 °C
CCC(O)(COC(N)=O)c1ccccc1 (centres undefined) | 55 °C
CCCN(CC)CC1COC2(CCC(C(C)(C)C)CC2)O1 (centres undefined) | < 25 °C
Cn1ncc(C(=O)Cl)c1Cl | 50 to 52 °C
CCOC(=O)NP(=O)(N1CC1)N1CC1 | 89 °C
ClC(Cl)(Br)CBr | -26 °C
CC(C)[C@H](N)P(=O)(O)O | 270 °C
N#Cc1ccc(C(F)(F)F)cc1Cl | 83 °C
C#CC1(O)CCC2C3CCC4=CC(=O)CCC4(C)C3CCC21C (centres undefined) | 269 °C
C=CF | -160 °C
CCS(=O)(=O)c1nc2ccccn2c1S(=O)(=O)NC(=O)Nc1nc(OC)cc(OC)n1 | 202 °C
O=C(O)C(Cl)CCl (centres undefined) | 50 °C
O=C=Nc1cccs1 | 108 to 110 °C
O=C(O)CCCCCO | 38 to 40 °C
